# Results taken from US10128078B2, “Protective agent for electron microscopic observation of biological sample in water-containing state, kit for electron microscopic observation, methods for observation, diagnosis, evaluation, and quantification by electron microscope, and sample stage” (JAPAN SCIENCE AND TECHNOLOGY AGENCY, priority 2014, dated 2018).
# Assays:
# [1] = test system: metastatic human melanoma cell line; assay: SEM observation of metastatic human melanoma cell line inoculated on a cell sheet of normal human skin cell after adding an anti-cancer drug; assay type: cell-based; details: 60 minutes after sorafenib was added; cell sheet of human skin-derived fibroblast cell; SEM image
# Procedure: (§1) A protective agent for electron microscopic observation and a surfactant-containing solution were prepared in the same manner as in Example 1.
# A cell sheet obtained by culturing a normal human skin cell in a plate shape was inoculated with a metastatic human melanoma cell line and treated with the protective agent for electron microscopic observation and the surfactant-containing solution in 60 minutes after sorafenib of a kind of anti-cancer drug was added the cell sheet. Thereafter, the metastatic human melanoma cell line covered with the surfactant-containing solution was introduced into the sample chamber of the SEM, irradiated with an electron beam to polymerize the surfactant-containing solution and thus to form a thin film, and subjected to the SEM observation.
# FIG. 17(a) is an image of the metastatic human melanoma cell line which was inoculated onto a cell sheet of the human skin-derived fibroblast cell, to which sorafenib was added, and which was observed and taken at a magnification of 1000-fold by a SEM. In addition, FIG. 17(b) is an image of FIG. 17(a) which was observed and taken at a magnification of 5000-fold by a SEM.
# artificial human skin = assay: SEM observation of three-dimensionally cultured artificial human skin after adding a drug (side effect evaluation); assay type: cell-based; details: 60 minutes after gefitinib dissolved in DMSO was added; SEM 2,500-fold; DMSO control kept normal morphology
# Procedure: as §1
# The artificial human skin obtained by sterically three-dimensionally culturing a normal human skin cell was treated with the protective agent for electron microscopic observation and the surfactant-containing solution in 60 minutes after gefitinib was added the artificial human skin. Thereafter, the artificial human skin covered with the surfactant-containing solution was introduced into the sample chamber of the SEM, irradiated with an electron beam to polymerize the surfactant-containing solution and thus to form a thin film, and subjected to the SEM observation (Example 12).
# FIGS. 18A and 18B are photographs of the three-dimensionally cultured artificial human skin. FIG. 18A is a photograph which illustrates the artificial human skin being cultured and the culture vessel. In addition, FIG. 18B is a photograph of the HE-stained pathological section of the artificial human skin of FIG. 18A. FIG. 19(a) is an image of the artificial human skin which was observed and taken at a magnification of 2,500-fold by a SEM after gefitinib dissolved in dimethyl sulfoxide (DMSO) was added the artificial human skin. […]
Compound,extension of a microfiber and invasion of the melanoma cell line into the normal skin cell [1],surface change of a skin cell (side effect) (artificial human skin)
CNC(=O)c1cc(Oc2ccc(NC(=O)Nc3ccc(Cl)c(C(F)(F)F)c3)cc2)ccn1 [sorafenib],not able to extend a microfiber so that the invasion thereof is suppressed,
COc1cc2ncnc(Nc3ccc(F)c(Cl)c3)c2cc1OCCCN1CCOCC1 [gefitinib],,peeled off in a scale shape
